{"source": "patent US11542240B2", "about": "“STK19 inhibitors for treatment of cancer” (TRUSTEES OF BOSTON UNIVERSITY, priority 2018, dated 2023)", "assay_in_all_cases": "biochemical", "assay_type_in_all_cases": "binding", "key": {"[1]": {"target": "panel of 468 diverse kinases (Homo sapiens, UniProt Q99683)", "settings": "ASK1; 1000 nM; read-out: Percent Control"}, "[2]": {"target": "panel of 468 diverse kinases (Homo sapiens, UniProt Q86UE8)", "settings": "TLK2; 1000 nM; read-out: Percent Control"}, "[3]": {"target": "panel of 468 diverse kinases (Homo sapiens, UniProt Q16288)", "settings": "TRKC; 1000 nM; read-out: Percent Control"}, "[4]": {"target": "panel of 468 diverse kinases (Homo sapiens, UniProt P09769)", "sequence (P09769 2-529 limits assumed)": "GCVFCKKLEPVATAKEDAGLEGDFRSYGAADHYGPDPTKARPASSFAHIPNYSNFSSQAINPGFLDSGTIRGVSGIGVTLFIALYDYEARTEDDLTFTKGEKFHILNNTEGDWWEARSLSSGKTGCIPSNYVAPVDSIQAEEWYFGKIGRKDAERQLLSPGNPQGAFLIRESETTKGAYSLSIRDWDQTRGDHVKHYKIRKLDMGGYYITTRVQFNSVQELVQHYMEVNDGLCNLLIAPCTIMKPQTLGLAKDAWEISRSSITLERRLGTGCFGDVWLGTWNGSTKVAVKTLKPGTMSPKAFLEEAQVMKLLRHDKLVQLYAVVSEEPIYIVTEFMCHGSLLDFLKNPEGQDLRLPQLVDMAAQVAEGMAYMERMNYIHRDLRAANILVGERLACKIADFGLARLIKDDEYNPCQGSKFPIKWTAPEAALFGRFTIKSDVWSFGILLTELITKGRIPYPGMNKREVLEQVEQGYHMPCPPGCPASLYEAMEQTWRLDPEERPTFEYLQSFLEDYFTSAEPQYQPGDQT", "settings": "FGR; 1000 nM; read-out: Percent Control"}, "[5]": {"target": "panel of 468 diverse kinases (Homo sapiens, UniProt Q15375)", "sequence (Q15375 28-998 limits assumed)": "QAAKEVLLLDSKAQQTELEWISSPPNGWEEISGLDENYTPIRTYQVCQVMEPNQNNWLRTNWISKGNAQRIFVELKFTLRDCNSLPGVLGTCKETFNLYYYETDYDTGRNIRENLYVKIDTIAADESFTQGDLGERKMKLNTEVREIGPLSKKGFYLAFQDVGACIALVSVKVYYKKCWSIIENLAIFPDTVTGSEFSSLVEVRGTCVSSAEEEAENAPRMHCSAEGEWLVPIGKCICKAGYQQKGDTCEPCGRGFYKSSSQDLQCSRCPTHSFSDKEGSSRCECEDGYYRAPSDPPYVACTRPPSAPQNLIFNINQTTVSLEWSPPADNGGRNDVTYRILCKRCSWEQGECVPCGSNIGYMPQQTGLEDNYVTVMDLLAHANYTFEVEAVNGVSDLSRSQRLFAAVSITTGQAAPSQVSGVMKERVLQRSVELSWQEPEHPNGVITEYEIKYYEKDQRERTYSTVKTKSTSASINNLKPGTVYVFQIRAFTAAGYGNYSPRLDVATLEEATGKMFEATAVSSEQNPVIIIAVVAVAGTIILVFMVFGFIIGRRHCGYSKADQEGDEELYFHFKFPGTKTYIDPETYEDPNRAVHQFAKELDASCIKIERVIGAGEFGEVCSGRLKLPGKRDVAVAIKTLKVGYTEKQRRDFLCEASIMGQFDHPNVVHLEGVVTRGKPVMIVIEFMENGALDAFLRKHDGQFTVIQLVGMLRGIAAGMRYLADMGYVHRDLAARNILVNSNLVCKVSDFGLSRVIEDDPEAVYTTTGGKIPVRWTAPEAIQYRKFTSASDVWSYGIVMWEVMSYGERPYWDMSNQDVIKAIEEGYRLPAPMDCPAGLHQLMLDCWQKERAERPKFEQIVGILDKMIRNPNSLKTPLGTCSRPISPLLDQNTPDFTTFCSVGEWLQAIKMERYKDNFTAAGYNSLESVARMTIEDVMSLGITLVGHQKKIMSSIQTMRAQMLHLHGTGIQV", "settings": "EPHA7; 1000 nM; read-out: Percent Control"}, "[6]": {"target": "panel of 468 diverse kinases (Homo sapiens, UniProt O94804)", "settings": "LOK; 1000 nM; read-out: Percent Control"}, "[7]": {"target": "panel of 468 diverse kinases (Homo sapiens, UniProt Q06187)", "sequence (Q06187 2-659 limits assumed)": "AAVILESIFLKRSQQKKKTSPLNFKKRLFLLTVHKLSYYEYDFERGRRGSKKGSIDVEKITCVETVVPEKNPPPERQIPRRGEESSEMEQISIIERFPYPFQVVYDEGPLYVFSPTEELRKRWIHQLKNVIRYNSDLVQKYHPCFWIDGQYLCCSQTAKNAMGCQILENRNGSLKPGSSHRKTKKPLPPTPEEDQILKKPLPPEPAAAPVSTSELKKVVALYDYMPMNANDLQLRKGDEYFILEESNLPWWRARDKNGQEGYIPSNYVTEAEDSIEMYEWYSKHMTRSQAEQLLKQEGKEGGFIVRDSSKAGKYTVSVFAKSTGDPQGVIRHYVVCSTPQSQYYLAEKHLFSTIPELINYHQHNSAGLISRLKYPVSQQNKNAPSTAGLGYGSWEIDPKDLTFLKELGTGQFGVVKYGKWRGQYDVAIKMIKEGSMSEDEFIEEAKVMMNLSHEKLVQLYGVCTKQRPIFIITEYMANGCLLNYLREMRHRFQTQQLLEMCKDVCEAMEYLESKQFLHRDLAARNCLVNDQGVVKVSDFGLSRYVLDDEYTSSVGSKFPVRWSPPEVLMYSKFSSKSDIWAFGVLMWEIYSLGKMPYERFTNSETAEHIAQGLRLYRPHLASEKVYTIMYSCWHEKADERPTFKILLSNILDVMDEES", "settings": "BTK; 1000 nM; read-out: Percent Control"}, "[8]": {"target": "panel of 468 diverse kinases (Homo sapiens, UniProt O15146)", "settings": "MUSK; 1000 nM; read-out: Percent Control"}, "[9]": {"target": "panel of 468 diverse kinases (Homo sapiens, UniProt Q8NI60)", "settings": "ADCK3; 1000 nM; read-out: Percent Control"}, "[10]": {"target": "panel of 468 diverse kinases (Homo sapiens, UniProt O60674)", "settings": "JAK2(JH1domain-catalytic); 1000 nM; read-out: Percent Control"}, "[11]": {"target": "panel of 468 diverse kinases (Homo sapiens, UniProt O75716)", "sequence (O75716 2-305 limits assumed)": "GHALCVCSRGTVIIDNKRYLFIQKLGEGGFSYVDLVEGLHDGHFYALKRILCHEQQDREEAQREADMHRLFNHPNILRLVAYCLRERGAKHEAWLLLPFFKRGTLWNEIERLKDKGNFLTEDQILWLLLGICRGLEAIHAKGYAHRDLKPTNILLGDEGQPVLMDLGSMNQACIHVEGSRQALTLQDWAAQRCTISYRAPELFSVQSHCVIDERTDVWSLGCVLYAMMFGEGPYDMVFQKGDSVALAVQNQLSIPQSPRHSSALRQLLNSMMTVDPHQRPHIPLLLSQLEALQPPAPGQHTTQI", "settings": "STK16; 1000 nM; read-out: Percent Control"}, "[12]": {"target": "panel of 468 diverse kinases (Homo sapiens, UniProt O15197)", "sequence (O15197 32-1021 limits assumed)": "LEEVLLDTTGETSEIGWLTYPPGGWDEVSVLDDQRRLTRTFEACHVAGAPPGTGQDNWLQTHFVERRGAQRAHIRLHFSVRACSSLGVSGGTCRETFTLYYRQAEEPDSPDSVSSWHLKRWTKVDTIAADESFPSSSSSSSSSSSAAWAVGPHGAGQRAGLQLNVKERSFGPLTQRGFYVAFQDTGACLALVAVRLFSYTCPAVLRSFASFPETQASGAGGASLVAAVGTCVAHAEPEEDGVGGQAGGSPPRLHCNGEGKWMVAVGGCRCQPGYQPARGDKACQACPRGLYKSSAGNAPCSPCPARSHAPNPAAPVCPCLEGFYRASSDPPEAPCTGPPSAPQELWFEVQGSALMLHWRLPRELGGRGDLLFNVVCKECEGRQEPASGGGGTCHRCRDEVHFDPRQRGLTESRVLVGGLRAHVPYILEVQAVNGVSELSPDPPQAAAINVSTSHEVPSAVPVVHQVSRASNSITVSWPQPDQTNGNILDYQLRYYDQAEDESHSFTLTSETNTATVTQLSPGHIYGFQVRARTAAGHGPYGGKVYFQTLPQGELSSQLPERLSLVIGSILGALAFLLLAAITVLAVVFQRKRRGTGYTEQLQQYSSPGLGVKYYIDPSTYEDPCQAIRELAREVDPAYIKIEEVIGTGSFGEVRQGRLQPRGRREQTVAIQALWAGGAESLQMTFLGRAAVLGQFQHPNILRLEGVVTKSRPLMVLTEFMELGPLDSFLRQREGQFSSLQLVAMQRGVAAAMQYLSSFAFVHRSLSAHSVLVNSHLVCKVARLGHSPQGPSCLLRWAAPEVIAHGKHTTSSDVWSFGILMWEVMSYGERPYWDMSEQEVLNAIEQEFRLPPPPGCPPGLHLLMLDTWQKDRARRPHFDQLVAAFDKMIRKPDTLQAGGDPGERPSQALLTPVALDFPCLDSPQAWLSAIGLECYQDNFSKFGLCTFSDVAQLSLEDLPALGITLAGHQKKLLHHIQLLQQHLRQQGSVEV", "settings": "EPHB6; 1000 nM; read-out: Percent Control"}, "[13]": {"target": "panel of 468 diverse kinases (Homo sapiens, UniProt Q9UQ88)", "settings": "CDC2L2; 1000 nM; read-out: Percent Control"}, "[14]": {"target": "panel of 468 diverse kinases (Homo sapiens, UniProt O75914)", "settings": "PAK3; 1000 nM; read-out: Percent Control"}, "[15]": {"target": "panel of 468 diverse kinases (Homo sapiens, UniProt P00519, F317L)", "settings": "1000 nM, read-out: Percent Control"}, "[16]": {"target": "panel of 468 diverse kinases (Homo sapiens, UniProt P29323)", "settings": "EPHB2; 1000 nM; read-out: Percent Control"}, "[17]": {"target": "panel of 468 diverse kinases (Homo sapiens, UniProt P51956)", "settings": "NEK3; 1000 nM; read-out: Percent Control"}, "[18]": {"target": "panel of 468 diverse kinases (Homo sapiens, UniProt P50613)", "sequence (P50613 2-346 limits assumed)": "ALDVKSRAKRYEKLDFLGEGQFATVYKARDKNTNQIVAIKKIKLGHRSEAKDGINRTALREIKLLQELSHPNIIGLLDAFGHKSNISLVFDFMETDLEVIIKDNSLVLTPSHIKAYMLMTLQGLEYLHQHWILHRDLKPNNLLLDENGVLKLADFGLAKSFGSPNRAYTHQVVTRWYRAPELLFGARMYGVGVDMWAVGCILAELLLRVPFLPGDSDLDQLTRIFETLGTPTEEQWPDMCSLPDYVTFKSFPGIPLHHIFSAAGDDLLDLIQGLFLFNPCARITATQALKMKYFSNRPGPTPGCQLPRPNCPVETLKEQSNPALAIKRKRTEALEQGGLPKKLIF", "settings": "CDK7; 1000 nM; read-out: Percent Control"}, "[19]": {"target": "panel of 468 diverse kinases (Homo sapiens, UniProt Q9UM73, L1196M)", "settings": "ALK(L1196M); 1000 nM; read-out: Percent Control"}, "[20]": {"target": "panel of 468 diverse kinases (Homo sapiens, UniProt Q96SB4)", "settings": "SRPK1; 1000 nM; read-out: Percent Control"}, "[21]": {"target": "panel of 468 diverse kinases (Homo sapiens, UniProt P49840)", "sequence (P49840 2-483 limits assumed)": "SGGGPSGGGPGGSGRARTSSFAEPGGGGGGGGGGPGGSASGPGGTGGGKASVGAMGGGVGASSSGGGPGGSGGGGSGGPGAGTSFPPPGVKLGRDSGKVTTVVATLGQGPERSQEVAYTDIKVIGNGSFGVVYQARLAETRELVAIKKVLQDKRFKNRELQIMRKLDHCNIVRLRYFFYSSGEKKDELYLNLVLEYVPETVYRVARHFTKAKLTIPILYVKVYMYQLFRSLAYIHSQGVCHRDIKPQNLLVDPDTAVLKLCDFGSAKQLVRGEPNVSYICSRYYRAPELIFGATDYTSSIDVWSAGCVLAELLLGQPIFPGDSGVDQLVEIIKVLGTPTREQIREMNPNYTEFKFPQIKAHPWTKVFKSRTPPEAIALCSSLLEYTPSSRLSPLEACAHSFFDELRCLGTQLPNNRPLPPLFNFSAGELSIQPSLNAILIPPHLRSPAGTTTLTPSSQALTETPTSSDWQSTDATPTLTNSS", "settings": "GSK3A; 1000 nM; read-out: Percent Control"}, "[22]": {"target": "panel of 468 diverse kinases (Homo sapiens, UniProt P78356)", "settings": "PIP5K2B; 1000 nM; read-out: Percent Control"}, "[23]": {"target": "panel of 468 diverse kinases (Homo sapiens, UniProt O43293)", "settings": "DAPK3; 1000 nM; read-out: Percent Control"}, "[24]": {"target": "panel of 468 diverse kinases (Homo sapiens, UniProt Q13237)", "sequence (Q13237 2-762 limits assumed)": "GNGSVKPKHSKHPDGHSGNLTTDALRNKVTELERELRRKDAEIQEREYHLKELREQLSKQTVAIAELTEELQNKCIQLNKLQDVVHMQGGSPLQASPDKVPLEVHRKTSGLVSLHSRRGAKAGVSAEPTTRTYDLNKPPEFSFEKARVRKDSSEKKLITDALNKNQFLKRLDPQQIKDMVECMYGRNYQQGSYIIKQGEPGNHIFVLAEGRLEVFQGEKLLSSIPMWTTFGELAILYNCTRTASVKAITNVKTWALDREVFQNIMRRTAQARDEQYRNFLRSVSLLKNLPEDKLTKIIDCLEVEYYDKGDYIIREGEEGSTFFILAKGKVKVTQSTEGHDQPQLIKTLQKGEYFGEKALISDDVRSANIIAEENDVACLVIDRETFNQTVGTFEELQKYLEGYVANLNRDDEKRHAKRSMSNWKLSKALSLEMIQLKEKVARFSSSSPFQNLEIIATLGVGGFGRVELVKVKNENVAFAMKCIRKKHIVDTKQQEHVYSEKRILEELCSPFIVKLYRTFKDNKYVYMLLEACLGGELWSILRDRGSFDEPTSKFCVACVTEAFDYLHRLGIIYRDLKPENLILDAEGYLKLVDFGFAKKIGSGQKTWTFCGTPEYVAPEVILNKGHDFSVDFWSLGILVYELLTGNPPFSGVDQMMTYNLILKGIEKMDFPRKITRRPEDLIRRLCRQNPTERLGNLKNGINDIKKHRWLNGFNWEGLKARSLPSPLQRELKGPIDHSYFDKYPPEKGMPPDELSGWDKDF", "settings": "PRKG2; 1000 nM; read-out: Percent Control"}, "[25]": {"target": "panel of 468 diverse kinases (Homo sapiens, UniProt P21802)", "settings": "FGFR2; 1000 nM; read-out: Percent Control"}, "[26]": {"target": "panel of 468 diverse kinases (Homo sapiens, UniProt Q96RR4)", "settings": "CAMKK2; 1000 nM; read-out: Percent Control"}, "[27]": {"target": "panel of 468 diverse kinases (Mycobacterium tuberculosis, UniProt P9WI81)", "settings": "read-out: Percent Control"}, "[28]": {"target": "panel of 468 diverse kinases (Homo sapiens, UniProt O00141)", "settings": "SGK; 1000 nM; read-out: Percent Control"}, "[29]": {"target": "panel of 468 diverse kinases (Homo sapiens, UniProt Q9NSY1)", "settings": "BIKE; 1000 nM; read-out: Percent Control"}, "[30]": {"target": "panel of 468 diverse kinases (Homo sapiens, UniProt P00519, F317I)", "settings": "1000 nM, read-out: Percent Control"}, "[31]": {"target": "panel of 468 diverse kinases (Homo sapiens, UniProt Q9BRS2)", "settings": "RIOK1; 1000 nM; read-out: Percent Control"}}, "note": "Read-outs that look alike come from different tables or passages of the source."}
{"smiles": "COc1cc2nc(NC3CC3)nc(NC3CCN(C(C)C)CC3)c2cc1OC", "note": "[Formula IV]", "values": [{"measurement": "remaining activity at 1 µM", "setting": "[1]", "value": 75, "unit": "%"}, {"measurement": "remaining activity at 1 µM", "setting": "[2]", "value": 100, "unit": "%"}, {"measurement": "remaining activity at 1 µM", "setting": "[3]", "value": 53, "unit": "%"}, {"measurement": "remaining activity at 1 µM", "setting": "[4]", "value": 100, "unit": "%"}, {"measurement": "remaining activity at 1 µM", "setting": "[5]", "value": 93, "unit": "%"}, {"measurement": "remaining activity at 1 µM", "setting": "[6]", "value": 90, "unit": "%"}, {"measurement": "remaining activity at 1 µM", "setting": "[7]", "value": 89, "unit": "%"}, {"measurement": "remaining activity at 1 µM", "setting": "[8]", "value": 83, "unit": "%"}, {"measurement": "remaining activity at 1 µM", "setting": "[9]", "value": 100, "unit": "%"}, {"measurement": "remaining activity at 1 µM", "setting": "[10]", "value": 74, "unit": "%"}, {"measurement": "remaining activity at 1 µM", "setting": "[11]", "value": 83, "unit": "%"}, {"measurement": "remaining activity at 1 µM", "setting": "[12]", "value": 81, "unit": "%"}, {"measurement": "remaining activity at 1 µM", "setting": "[13]", "value": 99, "unit": "%"}, {"measurement": "remaining activity at 1 µM", "setting": "[14]", "value": 71, "unit": "%"}, {"measurement": "remaining activity at 1 µM", "setting": "[15]; ABL1 (F317L)-nonpho sphorylated", "value": 82, "unit": "%"}, {"measurement": "remaining activity at 1 µM", "setting": "[15]; ABL1(F317L)-phosphorylated", "value": 40, "unit": "%"}, {"measurement": "remaining activity at 1 µM", "setting": "[16]", "value": 70, "unit": "%"}, {"measurement": "remaining activity at 1 µM", "setting": "[17]", "value": 50, "unit": "%"}, {"measurement": "remaining activity at 1 µM", "setting": "[18]", "value": 69, "unit": "%"}, {"measurement": "remaining activity at 1 µM", "setting": "[19]", "value": 78, "unit": "%"}, {"measurement": "remaining activity at 1 µM", "setting": "[20]", "value": 97, "unit": "%"}, {"measurement": "remaining activity at 1 µM", "setting": "[21]", "value": 95, "unit": "%"}, {"measurement": "remaining activity at 1 µM", "setting": "[22]", "value": 100, "unit": "%"}, {"measurement": "remaining activity at 1 µM", "setting": "[23]", "value": 89, "unit": "%"}, {"measurement": "remaining activity at 1 µM", "setting": "[24]", "value": 88, "unit": "%"}, {"measurement": "remaining activity at 1 µM", "setting": "[25]", "value": 100, "unit": "%"}, {"measurement": "remaining activity at 1 µM", "setting": "[26]", "value": 100, "unit": "%"}, {"measurement": "remaining activity at 1 µM", "setting": "[27]", "value": 62, "unit": "%"}, {"measurement": "remaining activity at 1 µM", "setting": "[28]", "value": 68, "unit": "%"}, {"measurement": "remaining activity at 1 µM", "setting": "[29]", "value": 100, "unit": "%"}, {"measurement": "remaining activity at 1 µM", "setting": "[30]; ABL1(F317I)-nonphosphorylated", "value": 85, "unit": "%"}, {"measurement": "remaining activity at 1 µM", "setting": "[30]; ABL1(F317I)-pho sphorylated", "value": 90, "unit": "%"}, {"measurement": "remaining activity at 1 µM", "setting": "[31]", "value": 100, "unit": "%"}]}
